Results as given in PubChem BioAssay (NCI).
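1) Cells in 96-well plates. 2) Compound, 48 h, 5 concentrations. 3) Linear interpolation between surrounding doses. 4) Unreached endpoint = highest concentration. GI50 = concentration required for 50% inhibition of growth. At the TGI there is no net growth.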

Columns and labels:
Test in all cases: NCI anticancer screen, dose series, 48 h
DU-145 prostate = tested on: DU-145 prostate
MDA-MB-231 breast = tested on: MDA-MB-231 breast
MDA-MB-435 = tested on: MDA-MB-435
PC-3 prostate = tested on: PC-3 prostate
T-47D breast = tested on: T-47D breast
DLD-1 colon = tested on: DLD-1 colon
DMS 114 small cell lung = tested on: DMS 114 small cell lung
DMS 273 small cell lung = tested on: DMS 273 small cell lung
KM20L2 colon = tested on: KM20L2 colon
LXFL 529 NSCLC = tested on: LXFL 529 NSCLC

Structure (SMILES)	TGI (DU-145 prostate)	TGI (MDA-MB-231 breast)	TGI (MDA-MB-435)	TGI (PC-3 prostate)	TGI (T-47D breast)	TGI (DLD-1 colon)	TGI (DMS 114 small cell lung)	TGI (DMS 273 small cell lung)	TGI (KM20L2 colon)	TGI (LXFL 529 NSCLC)	also measured
COc1cc2c(cc1OCCCOc1cc3c(cc1OC)C(=O)N1CC(F)(F)C[C@H]1C=N3)N=C[C@@H]1CC(F)(F)CN1C2=O	2.82 µM	6.77 µM	4.91 µM	9.9 µM	5.12 µM						GI50 (DU-145 prostate): 0.329 µM; GI50 (MDA-MB-231 breast): 1.31 µM; GI50 (MDA-MB-435): 1.6 µM; GI50 (PC-3 prostate): 1.28 µM; GI50 (T-47D breast): 0.344 µM
NCc1ccc(O)c(O)c1O	> 100 µM	43.5 µM	32.7 µM	> 100 µM	71.6 µM	37.2 µM	42.8 µM	31 µM	> 80.9 µM	30.6 µM	
CN(C)C=O.CN(C)C=O.CN1C(C(=O)Nc2ccccn2)=C([O-])c2ccccc2S1(=O)=O.CN1C(C(=O)Nc2ccccn2)=C([O-])c2ccccc2S1(=O)=O.[Cu+2]							> 100 µM	> 100 µM	> 100 µM	> 100 µM	GI50 (DMS 114 small cell lung): 32.2 µM; GI50 (DMS 273 small cell lung): 35.9 µM; GI50 (KM20L2 colon): > 100 µM; GI50 (LXFL 529 NSCLC): 27.8 µM
CCc1cc(C)cc2[n+]1CC=C2C						> 100 µM		> 100 µM	> 100 µM	> 100 µM	
Cn1ncc2c(=O)[nH]c(-c3ccccc3)nc21						> 100 µM	> 100 µM	> 100 µM	> 100 µM		
O=C(O)\C=C/C=C/C=C/C=C/C(=O)O						> 100 µM	> 100 µM	> 100 µM	> 100 µM	> 100 µM	
NC(CCCNc1ccc(O)cc1)C(=O)O (centres undefined)						42.6 µM	54.1 µM	> 100 µM	> 100 µM	33.3 µM	
CC(C)C(C)C(O)C(O)C(C)C1CCC2C3COC(=O)C4CC(O)C(O)CC4(C)C3CCC12C (centres undefined)	> 100 µM	> 100 µM	> 100 µM	> 100 µM	> 100 µM						
CC1(C)CCCC2(C)C3=C(CCC12)C(=O)OC3 (centres undefined)	> 100 µM	> 100 µM	> 100 µM	> 100 µM	> 100 µM						
COC(=O)C12OCC34C(CC5C(C)C6=CC(=O)OC6=CC5(C)C3C(O)C1O)OC(=O)C(OC(C)=O)C24 (centres undefined)						25.3 µM	35.4 µM	30.2 µM	33.3 µM	31.5 µM	
O=C(Nc1ccc(-n2ccc3c(NC(=O)c4ccccc4)ncnc32)cc1)Nc1ccc(Cl)c(C(F)(F)F)c1	4.61 µM	3.66 µM	4.43 µM	3.01 µM	5.73 µM						GI50 (DU-145 prostate): 2.12 µM; GI50 (MDA-MB-231 breast): 1.55 µM; GI50 (MDA-MB-435): 1.85 µM; GI50 (PC-3 prostate): 1.25 µM; GI50 (T-47D breast): 2.27 µM
N=C(N)SC(c1ccccc1)c1ccccc1	25.4 µM	33.5 µM	26.5 µM	27.3 µM	22.6 µM						
Cc1cc(N2CCCCC2)nc(NCc2cc(Nc3ccnc4cc(Cl)ccc34)ccc2F)n1	3.14 µM	3.5 µM	3.14 µM	4.04 µM	2.99 µM						GI50 (DU-145 prostate): 1.49 µM; GI50 (MDA-MB-231 breast): 1.81 µM; GI50 (MDA-MB-435): 1.64 µM; GI50 (PC-3 prostate): 1.9 µM; GI50 (T-47D breast): 1.26 µM
NS(=O)(=O)c1ccc(C(=O)O)cc1	> 100 µM	> 100 µM	> 100 µM	> 100 µM	> 100 µM						
Cc1nc2ccccc2c(=O)n1Nc1ccc(C(=O)O)cc1						> 100 µM	> 100 µM	> 100 µM	> 100 µM		
O=C1CC(c2ccccc2)NCCCCN2CC(CN1)C(C(O)c1ccccc1)C2=O (centres undefined)	> 100 µM	> 100 µM	> 100 µM	> 100 µM	> 100 µM						
CC(C)(c1ccccc1)c1ccc(Oc2ccc3c(c2)-c2nc-3nc3[nH]c(nc4nc(nc5[nH]c(n2)c2ccc(Oc6ccc(C(C)(C)c7ccccc7)cc6)cc52)-c2cc(Oc5ccc(C(C)(C)c6ccccc6)cc5)ccc2-4)c2ccc(Oc4ccc(C(C)(C)c5ccccc5)cc4)cc32)cc1						> 100 µM		> 100 µM	> 100 µM	> 100 µM	
COc1ccc(C(=O)NNC(=O)c2nsc3ccccc23)cc1							> 100 µM	> 100 µM	> 100 µM	> 100 µM	
Nc1ccc([As](=O)(O)O)cc1	> 100 µM	> 100 µM	> 100 µM	> 100 µM	> 100 µM						
Cc1cccc(NC(N)=S)c1						> 100 µM	> 100 µM			> 100 µM	
COc1ccc2c(c1)C(=O)c1c-2n(CCCCl)c(=O)c2cc([N+](=O)[O-])ccc12	> 100 µM	> 46 µM	9.22 µM	> 100 µM	> 100 µM						GI50 (DU-145 prostate): 0.0361 µM; GI50 (MDA-MB-435): 0.985 µM; GI50 (PC-3 prostate): 1.68 µM
